# Reference: US6803195B1, “Facile detection of cancer and cancer risk based on level of coordination between alleles” (Ramot At Tel-Aviv University Ltd., priority 1999, dated 2004)
# Key:
# Type in all cases: cell-based, human
# [1] = system: lymphocytes of prostate cancer patients (CAP) and control subjects (BPH); assay: FISH determination of allelic loss in CAP and BPH lymphocytes with and without 5-azacytidine (Example 7); settings: CAP samples 1-6 and BPH samples 1-6, presence vs absence of AZA
# Procedure: Each sample was set up for short-term culturing in F10 medium supplemented with 20% fetal calf serum (FCS), 3% phytohemagglutinin (PHA), 0.2% heparin, and 1% antibiotics (a standard solution of penicillin and streptomycin). Cultures were incubated at 37° C. for 72 hours and then colchicine (final concentration 0.1 μg/ml) was added to the culture for one hour, followed by hypotonic treatment (0.075 M KC1 at 37° C. for 15 minutes) and four washes each with a fresh cold 3:1 methanol: acetic acid solution. The cell suspensions were stored at −20° C. until used for fluorescence in situ hybridization (FISH). […]
# Slides were analyzed blindly on an Olympus BH2 fluorescent microscope, using a triple band-pass filter (Chroma technology). […] For each sample and for each treatment the frequency of SD, SS and DD cells out of the total population of cells containing two fluorescent signals was recorded (for details please see Dotan et al, Genes, Chromosomes & Cancer 27:270-277, 2000). For the determination of allelic losses at least 200 cells from the same preparation used for replication studied were analyzed for each tested sample. […]
# [2] = system: PHA-stimulated lymphocytes, chromosome 21, 13, 17 and 15; assay: FISH analysis of chromosome losses and gains with and without 5-azacytidine (Example 6); settings: cancerous samples 1-15, presence vs absence of AZA
# Procedure: (§1) Each subject donated five ml of peripheral blood. Cell cultures of PHA-stimulated lymphocytes were set up according to standard protocol (Rooney and Czepulkowsli, 1992). Briefly, 0.5 ml of peripheral blood was introduced into a 15 ml test tube containing 5ml F-10 medium supplemented with 20% fetal calf serum, 0.2% heparin, 1% penicillin/streptomycin antibiotic solution (Biological industries, Israel) and 3% phytohemagglutinin (PHA). In addition, all the 15 samples derived from the hematological patients (samples 1-15) and 15 of the 41 samples derived from non-cancerous subjects (samples 16-30) were also grown in the presence of 10^−7M 5-azacytidine (AZA; Sigman, USA) added to the other ingredients described above.
# For the analyses of chromosome losses and gains, at least 200 cells following one-color FISH with each of the chromosome enumerating probes (AML1, RB1, CEN17 and CEN15) were scored for each tested sample, employing the same preparation used for evaluating allelic replication timing. The frequency of cells containing a single signal was used to evaluate the extent of chromosome losses and the frequency of cells with three or more signals were used to assess the level of chromosome gains.
# The mean SD value of five loci (TP53, AML1, RB1, CEN17 and CEN15) and the mean losses and gains value of four loci (AML1, RB1, CEN17 and CEN15) represent each sample. […]
# [3] = system: PHA-stimulated lymphocytes of non-cancerous individuals; assay: FISH replication assay, lymphocytes of non-cancerous individuals grown with 5-azacytidine (Example 6); settings: for percentage of SD cells, mean value in AZA-exposed non-cancerous samples: samples 16-30, 72 hours, mean ± standard deviation
# Procedure: as §1
# After 72 hours at 37° C., colchicine (Sigma, USA) was added to each sample (final concentration of 5×10^−7M for one hour) followed by hypotonic treatment (0.075 M KC1 at 37° C. for 15 minutes) and four washes, each with a fresh cold (−20° C.) 3:1 solution of methanol: acetic acid. The cell suspensions were stored at −20° C. until used for FISH.
# Six diverse loci were tested using directly labeled commercial probes obtained from Vysis: (i) the SNRPN probe (32-190004); (ii) the TP53 probe (32-190006); (iii) the AML1 probe (LSI 21; 32-190002); (iv) the RB1 probe (LSI 13; 32-190001); (v) the α-satellite probe specific for centromere 17 (32-130017, hereafter marked as CEN17); and (vi) the satellite III probe specific for centromere 15 (32-1300015, hereafter marked as CEN15). The SNRPN probe identifies the Prader-Willi/Angelman syndrome region on 15q11-13 and is the most well characterized imprinted region in man (Ozoelik et al 1992). The TP53 probe identifies the p53 gene mapped to […] and is a tumor suppressor gene whose deletion and/or inactivation is implicated in over 50% of all human tumors (Prokocimer et al 1998). The AML1 probe recognizes a gene mapped to chromosome 21q22, which is one of the most frequently translocated genes in human blood malignancy (Look 1997). […] It is located on chromosome 13q14, and encodes the retinoblastoma protein. Both centromere specific probes (CEN17 and CEN15) identify non-coding loci implicated with chromosomal segregation and stability and are usually used for the enumeration of chromosome 17 and 15, respectively. Also the AML1 and RB1 probes, although not identifying centromeric regions, were both approved by the FDA to replace centromere specific probes for the enumeration of chromosomes 21 and 13, respectively.
# A standard protocol was followed, as recommended by Ingen Laboratories (currently Insitus Biotechnologies), with few minor changes. Probes were diluted in Ingen's DenHyb solutions D001 to 400 folds (CEN17 and CEN15) and in D003 to 100 fold (AML1; RB1) or 50 fold (TP53; SNRPN) instead of the hybridization solution supplied with the probe. Five μl of the probe solution was placed on the targeted area of the sample slides and covered with a 12 mm round silanized coverslip (Ingen laboratories, USA) at 76° C. and denatured for six minutes at that temperature. The slide-filled aluminum slide tray was then transferred into an HybBox (Ingen Laboratories, USA), covered and allowed to hybridize overnight in the box.
# Each of the 15 samples derived from the noncancerous subjects (samples 16-30) grown in the presence of AZA was also analyzed with each of the six probes used.
# Slides were analyzed blindly on an Olympus BH2 fluorescent microscope, using a triple band-pass filter (Chroma technology). For the replication assay (Boogs and Chinault, 1997) at least 100 cells, containing two well-defined hybridization signals were scored from each sample, for each probe and for each treatment, following one-color FISH. The structure of each signal, either singlet (S), representing a non-replicated sequence, or doublet (D), disclosing a replicated sequence, was noted FIG. 1. […]
compound,measurement,setting,value
"Nc1ncn([C@@H]2O[C@H](CO)[C@@H](O)[C@H]2O)c(=O)n1 [AZA, 5-azacytidine]","frequency of cells showing a loss of one copy of AML1, TP53, CMYC, RB1, D15Z1 and SNRPN",[1],Neither the CAP samples nor the BPH samples were affected
same,"losses and gains values (mean of AML1, RB1, CEN17 and CEN15)",[2],unchanged
same,"percentage of SD cells, mean value in AZA-exposed non-cancerous samples","[3]; AML1 locus, 10^-7M AZA",21.5±4.5%
same,"percentage of SD cells, mean value in AZA-exposed non-cancerous samples","[3]; CEN15 locus, 10^-7M AZA",20.9±3.8%
same,"percentage of SD cells, mean value in AZA-exposed non-cancerous samples","[3]; CEN17 locus, 10^-7M AZA",20.9±5.0%
same,"percentage of SD cells, mean value in AZA-exposed non-cancerous samples","[3]; RB1 locus, 10^-7M AZA",22.3±3.9%
same,"percentage of SD cells in AZA-exposed non-cancerous samples, range","[3]; TP53, AML1, RB1, CEN17 and CEN15, 10^-7M AZA",12-29%
same,"percentage of SD cells, mean value in AZA-exposed non-cancerous samples","[3]; TP53 locus, 10^-7M AZA",20.4±4.4%
same,"combined SD frequency (mean of TP53, AML1, RB1, CEN17 and CEN15) per sample, range",[3]; non-cancerous samples exposed to AZA,16.7-24.6%
